The test system of assay [1] is human immunodeficiency virus type 1. Description: Acute Infection Assay (Spread). The note with it: Human immunodeficiency virus 1; 10% FBS; mean of at least two independent experiments; read-out: Spread IC95. Format: cell-based, HIV-1. The text has this: Acute Infection Assay (“Spread”) data were generated in 10% FBS, and according to the methods disclosed by J. P. Vacca et al, “L-735,524: An orally bioavailable human immunodeficiency virus type 1 protease inhibitor,” Proc. Nati. Acad. Sci. USA, Vol. 91, pp. 4096-4100 (April 1994).

The target in assay [2] is T1, HIV-1 protease (wild type) (Human immunodeficiency virus type 1 group M subtype B, UniProt P04585).
T1 construct: made in house; host or cells: Escherichia coli
Description: Protease Inhibition Assay (Pepcleave), inhibition of microbial expressed HIV protease. The class given is biochemical. The protocol:
Assay for Inhibition of Microbial Expressed HIV Protease
Inhibition studies of the reaction of the protease (which was expressed in Eschericia coli) with a peptide substrate [Val-Ser-Gln-Asn-(betanaphtyl)Ala-Pro-Ile-Val]. The inhibitor is first preincubated with the HIV-1 protease (wild type) enzyme in assay buffer (50 mM sodium acetate, pH 5.5, 100 mM NaCl, and 0.1% BSA) for 30 minutes at room temperature. Substrate is added to 400 micromolar in a total volume of 80 microliters containing 10 picomolar HIV-1 protease and the reaction is incubated for 1 hour at 30° C. The reaction is quenched with the addition of 120 microliters of 10% phosphoric acid. The product formation is determined after separation of product and substrate on a Zorbax Eclipse XDB-C18 column connected to an Agilent 1100 high performance liquid chromatography system with fluorescence detection (excitation 270 nanometer and emission 330 nanometer). Alternatively, the inhibitor is preincubated with enzyme and substrate as described above, but in a total volume of 20 microliters containing 20 picomolar HIV-1 protease and the reaction is incubated for 1 hour at 30° C. The reaction is quenched with the addition of 30 microliters of 1 micromolar indinavir (indinavir is also used as an internal standard), and the product formation is determined after separation of product and substrate on a Zorbax Eclipse XDB-C18 column connected to an API 4000 mass spectrometer (Applied Biosystems) with multiple reaction monitoring (transitions were 644.5/428.9 and 615.4/422.2 (M1/M3) for product and indinavir respectively). The extent of inhibition of the reaction is determined from the peak area of the products. HPLC of the products, independently synthesized, provided quantitation standards and confirmation of the product composition.
Protease Inhibition Assay (“Pepcleave”) data were collected based on the wild-type HIV-1 protease enzyme. The assay monitors the cleavage of a 8-mer peptide (VSQN[β-Nal]PIV) where the tyrosine at P1 position is replaced by β-Naphthyl-alanine. Upon cleavage of the peptide by HIV-1 protease, the product is separated from substrate by HPLC column and detected at Ex.=270 nm/Em=330 nm.

Where two headings read alike, the source gives them in different places.

What is called IC95 is the point of the concentration-response curve where the effect stands at 95%. The IC50 is the midpoint of a concentration-inhibition curve. In the case of `COC(=O)N[C@H](C(=O)Nc1ccccc1SC[C@@H](CO)N(CCC(C)C)S(=O)(=O)c1ccc(N)cc1)C(c1ccccc1)c1ccccc1` [Example 28, N-(2-{[(2R)-2-{[(4-aminophenyl)sulfonyl](3-methylbutyl)amino}-3-hydroxypropyl]sulfanyl}phenyl)-Nα-(methoxycarbonyl)-β-phenyl-L-phenylalaninamide], the IC95 in assay [1] was 0.194 µM. In assay [2] (wild-type HIV-1 protease, mean of at least two independent experiments, read-out: Pepcleave Enzyme inhibition IC50), the IC50 came to 0.0001 µM.

Consider `[2H]C([2H])([2H])C([2H])(C([2H])([2H])[2H])C([2H])([2H])N([C@H](CO)CCc1ccccc1NC(=O)[C@@H](NC(=O)OC)C(c1ccccc1)c1ccccc1)S(=O)(=O)c1ccc2ncsc2c1` [Example 8, N-(2-{(3S)-3-[(1,3-benzothiazol-6-ylsulfonyl)(2-methylpropyl-d9)amino]-4-hydroxybutyl}phenyl)-Nα-(methoxycarbonyl)-β-phenyl-L-phenylalaninamide], for which the IC95 in assay [1] came out at 1.55 µM. The midpoint of inhibition in assay [2], the IC50, lay at 0.0017 µM.

On to `COC(=O)N[C@H](C(=O)Nc1cccc(C[C@@H](CO)N(CCC(C)C)S(=O)(=O)c2ccc(CO)cc2)c1)C(c1ccccc1)c1ccccc1` [Example 32, N-(3-{(2S)-3-hydroxy-2-[{[4-(hydroxymethyl)phenyl]sulfonyl}(3-methylbutyl)amino]propyl}phenyl)-Nα-(methoxycarbonyl)-β-phenyl-L-phenylalaninamide], for which the IC95 in assay [1] was determined as 1.74 µM. Besides, the IC50 in assay [2] was determined as 0.0024 µM.

For the origin of these results see patent US9187415B2, “Sulfonamides as HIV protease inhibitors” (Merck Canada Inc., priority 2010, dated 2015).
